Data reported in ChEMBL document CHEMBL5678818, “Discovery of potent SOS1 inhibitors that block RAS activation via disruption of the RAS-SOS1 interaction” (Proc Natl Acad Sci U S A, 2019).

Columns and labels:
[1] = target: Serine/threonine-protein kinase B-raf (Homo sapiens) (UniProt P15056); assay: Inhibition of BRAF (unknown origin) assessed as residual activity at 1000 nM by KINOMEscan analysis relative to control
[2] = target: Tyrosine-protein kinase JAK1 (Homo sapiens) (UniProt P23458); assay: Inhibition of JAK1 JH2 pseudokinase domain (unknown origin) assessed as residual activity at 1000 nM by KINOMEscan analysis relative to control
Sequence of Tyrosine-protein kinase JAK1 (Homo sapiens) (P23458 whole entry, the tested form may be a part): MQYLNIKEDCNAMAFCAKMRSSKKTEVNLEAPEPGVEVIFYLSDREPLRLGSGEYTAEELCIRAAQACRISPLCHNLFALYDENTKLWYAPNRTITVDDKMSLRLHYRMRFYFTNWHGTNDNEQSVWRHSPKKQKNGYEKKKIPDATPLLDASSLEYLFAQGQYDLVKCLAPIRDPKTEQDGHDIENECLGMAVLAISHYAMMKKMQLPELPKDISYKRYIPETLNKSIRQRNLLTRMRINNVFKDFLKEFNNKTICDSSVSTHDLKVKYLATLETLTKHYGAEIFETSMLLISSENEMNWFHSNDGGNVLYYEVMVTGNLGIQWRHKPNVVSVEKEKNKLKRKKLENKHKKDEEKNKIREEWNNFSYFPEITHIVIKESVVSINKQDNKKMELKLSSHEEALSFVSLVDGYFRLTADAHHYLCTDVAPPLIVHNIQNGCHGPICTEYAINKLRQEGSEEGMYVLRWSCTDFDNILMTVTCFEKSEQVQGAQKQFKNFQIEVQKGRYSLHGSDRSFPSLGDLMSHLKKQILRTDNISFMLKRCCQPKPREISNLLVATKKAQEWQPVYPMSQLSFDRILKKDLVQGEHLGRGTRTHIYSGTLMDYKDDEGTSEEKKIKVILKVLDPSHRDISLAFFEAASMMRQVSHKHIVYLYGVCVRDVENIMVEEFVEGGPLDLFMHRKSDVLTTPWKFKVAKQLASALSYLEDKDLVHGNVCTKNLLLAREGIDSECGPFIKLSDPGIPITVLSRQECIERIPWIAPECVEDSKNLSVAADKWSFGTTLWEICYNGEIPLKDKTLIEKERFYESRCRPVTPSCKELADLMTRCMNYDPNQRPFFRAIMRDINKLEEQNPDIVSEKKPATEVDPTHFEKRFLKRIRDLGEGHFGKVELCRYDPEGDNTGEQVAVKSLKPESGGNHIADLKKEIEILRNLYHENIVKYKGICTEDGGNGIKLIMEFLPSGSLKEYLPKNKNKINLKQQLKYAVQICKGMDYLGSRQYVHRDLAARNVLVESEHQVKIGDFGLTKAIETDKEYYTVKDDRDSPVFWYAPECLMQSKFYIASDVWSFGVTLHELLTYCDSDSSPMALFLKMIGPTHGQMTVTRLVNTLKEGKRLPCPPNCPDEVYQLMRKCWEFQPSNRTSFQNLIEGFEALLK

[3] = target: T1, Mitogen-activated protein kinase kinase kinase 3 (Homo sapiens) (UniProt Q99759); assay: Inhibition of MAP3K3 (unknown origin) assessed as residual activity at 1000 nM by KINOMEscan analysis relative to control
T1 sequence (whole entry): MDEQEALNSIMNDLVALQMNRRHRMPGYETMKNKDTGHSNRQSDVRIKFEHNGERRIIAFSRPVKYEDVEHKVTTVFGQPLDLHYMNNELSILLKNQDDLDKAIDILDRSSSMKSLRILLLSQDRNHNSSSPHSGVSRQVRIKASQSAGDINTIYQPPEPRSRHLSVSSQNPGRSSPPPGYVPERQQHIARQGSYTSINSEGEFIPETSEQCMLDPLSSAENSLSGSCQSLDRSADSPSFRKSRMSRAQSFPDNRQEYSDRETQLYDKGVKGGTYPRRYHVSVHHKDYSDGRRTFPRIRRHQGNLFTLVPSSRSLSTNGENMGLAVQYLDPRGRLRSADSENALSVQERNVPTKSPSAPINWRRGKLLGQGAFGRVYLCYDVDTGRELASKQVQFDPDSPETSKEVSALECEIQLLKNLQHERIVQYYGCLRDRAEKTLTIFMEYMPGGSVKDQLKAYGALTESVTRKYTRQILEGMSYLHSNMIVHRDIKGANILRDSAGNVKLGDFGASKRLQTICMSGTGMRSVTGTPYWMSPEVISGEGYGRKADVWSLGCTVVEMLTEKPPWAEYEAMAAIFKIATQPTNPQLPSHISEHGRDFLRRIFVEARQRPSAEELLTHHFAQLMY

[4] = target: T2, Receptor-interacting serine/threonine-protein kinase 4 (Homo sapiens) (UniProt P57078); assay: Inhibition of RIPK4 (unknown origin) assessed as residual activity at 1000 nM by KINOMEscan analysis relative to control
T2 sequence (whole entry): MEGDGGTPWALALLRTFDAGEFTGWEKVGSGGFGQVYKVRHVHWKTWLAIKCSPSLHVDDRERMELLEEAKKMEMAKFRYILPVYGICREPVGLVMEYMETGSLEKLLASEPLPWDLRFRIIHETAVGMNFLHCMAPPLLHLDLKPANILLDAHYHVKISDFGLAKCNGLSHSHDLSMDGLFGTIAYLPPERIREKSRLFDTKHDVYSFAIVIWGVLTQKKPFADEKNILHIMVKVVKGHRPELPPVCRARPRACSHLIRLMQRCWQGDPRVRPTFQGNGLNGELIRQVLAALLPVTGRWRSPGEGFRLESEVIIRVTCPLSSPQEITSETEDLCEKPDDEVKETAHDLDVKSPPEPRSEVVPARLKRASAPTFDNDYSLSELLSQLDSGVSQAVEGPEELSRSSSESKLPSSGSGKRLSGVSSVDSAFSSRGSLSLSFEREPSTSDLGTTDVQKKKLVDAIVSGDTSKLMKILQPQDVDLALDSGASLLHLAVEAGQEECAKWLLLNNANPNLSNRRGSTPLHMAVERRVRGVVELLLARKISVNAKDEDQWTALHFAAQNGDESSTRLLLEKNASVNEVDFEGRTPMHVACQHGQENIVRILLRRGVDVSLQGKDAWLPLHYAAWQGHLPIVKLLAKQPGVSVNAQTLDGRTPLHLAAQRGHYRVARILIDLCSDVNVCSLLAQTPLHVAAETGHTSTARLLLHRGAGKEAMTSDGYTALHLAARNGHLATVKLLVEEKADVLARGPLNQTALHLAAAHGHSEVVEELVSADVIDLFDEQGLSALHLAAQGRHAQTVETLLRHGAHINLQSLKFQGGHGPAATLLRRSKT

[5] = target: Phosphorylase b kinase gamma catalytic chain, skeletal muscle/heart isoform (Homo sapiens) (UniProt Q16816); assay: Inhibition of PHKG1 (unknown origin) assessed as residual activity at 1000 nM by KINOMEscan analysis relative to control
Sequence of Phosphorylase b kinase gamma catalytic chain, skeletal muscle/heart isoform (Homo sapiens) (Q16816 whole entry, looked up, canonical isoform): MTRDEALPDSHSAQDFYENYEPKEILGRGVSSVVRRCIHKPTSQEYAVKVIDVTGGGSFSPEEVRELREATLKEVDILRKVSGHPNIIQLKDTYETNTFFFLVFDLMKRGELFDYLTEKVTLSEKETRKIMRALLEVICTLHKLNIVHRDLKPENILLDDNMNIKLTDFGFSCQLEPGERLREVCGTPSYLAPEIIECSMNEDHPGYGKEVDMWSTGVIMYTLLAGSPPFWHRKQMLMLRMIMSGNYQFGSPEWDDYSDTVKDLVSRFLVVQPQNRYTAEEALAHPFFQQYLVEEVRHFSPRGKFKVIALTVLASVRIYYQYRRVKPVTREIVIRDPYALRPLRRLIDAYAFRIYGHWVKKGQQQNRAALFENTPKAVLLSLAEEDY

[6] = target: T3, Cyclin-dependent kinase-like 5 (Homo sapiens) (UniProt O76039); assay: Inhibition of CDKL5 (unknown origin) assessed as residual activity at 1000 nM by KINOMEscan analysis relative to control
T3 sequence (whole entry): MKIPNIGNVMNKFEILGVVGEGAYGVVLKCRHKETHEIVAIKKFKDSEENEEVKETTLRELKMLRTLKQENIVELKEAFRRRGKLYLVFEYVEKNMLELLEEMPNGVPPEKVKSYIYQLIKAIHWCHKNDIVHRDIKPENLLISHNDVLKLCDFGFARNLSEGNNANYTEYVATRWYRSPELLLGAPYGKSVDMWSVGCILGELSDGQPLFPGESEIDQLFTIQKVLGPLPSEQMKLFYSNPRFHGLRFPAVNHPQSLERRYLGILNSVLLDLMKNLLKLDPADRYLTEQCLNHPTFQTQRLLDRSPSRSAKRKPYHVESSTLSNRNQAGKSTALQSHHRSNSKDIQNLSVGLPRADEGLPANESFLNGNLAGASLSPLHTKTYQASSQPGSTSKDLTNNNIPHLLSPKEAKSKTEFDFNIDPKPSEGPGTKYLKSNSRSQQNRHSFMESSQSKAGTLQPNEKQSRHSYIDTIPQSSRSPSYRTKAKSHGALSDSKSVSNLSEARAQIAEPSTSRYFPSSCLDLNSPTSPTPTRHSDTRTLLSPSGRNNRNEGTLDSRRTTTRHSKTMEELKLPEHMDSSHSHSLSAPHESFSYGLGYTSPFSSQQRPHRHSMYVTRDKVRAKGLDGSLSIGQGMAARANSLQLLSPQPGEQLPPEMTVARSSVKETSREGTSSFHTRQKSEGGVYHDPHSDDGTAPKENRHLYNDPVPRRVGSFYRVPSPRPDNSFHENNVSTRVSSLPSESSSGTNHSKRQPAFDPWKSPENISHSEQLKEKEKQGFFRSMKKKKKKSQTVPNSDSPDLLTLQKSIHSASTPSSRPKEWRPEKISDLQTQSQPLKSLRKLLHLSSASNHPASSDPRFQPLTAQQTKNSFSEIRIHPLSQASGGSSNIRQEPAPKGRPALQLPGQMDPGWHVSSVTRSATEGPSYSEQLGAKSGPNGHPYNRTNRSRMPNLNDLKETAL

[7] = target: Serine/threonine-protein kinase PRP4 homolog (Homo sapiens) (UniProt Q13523); assay: Inhibition of PRP4 (unknown origin) assessed as residual activity at 1000 nM by KINOMEscan analysis relative to control
Sequence of Serine/threonine-protein kinase PRP4 homolog (Homo sapiens) (Q13523 whole entry): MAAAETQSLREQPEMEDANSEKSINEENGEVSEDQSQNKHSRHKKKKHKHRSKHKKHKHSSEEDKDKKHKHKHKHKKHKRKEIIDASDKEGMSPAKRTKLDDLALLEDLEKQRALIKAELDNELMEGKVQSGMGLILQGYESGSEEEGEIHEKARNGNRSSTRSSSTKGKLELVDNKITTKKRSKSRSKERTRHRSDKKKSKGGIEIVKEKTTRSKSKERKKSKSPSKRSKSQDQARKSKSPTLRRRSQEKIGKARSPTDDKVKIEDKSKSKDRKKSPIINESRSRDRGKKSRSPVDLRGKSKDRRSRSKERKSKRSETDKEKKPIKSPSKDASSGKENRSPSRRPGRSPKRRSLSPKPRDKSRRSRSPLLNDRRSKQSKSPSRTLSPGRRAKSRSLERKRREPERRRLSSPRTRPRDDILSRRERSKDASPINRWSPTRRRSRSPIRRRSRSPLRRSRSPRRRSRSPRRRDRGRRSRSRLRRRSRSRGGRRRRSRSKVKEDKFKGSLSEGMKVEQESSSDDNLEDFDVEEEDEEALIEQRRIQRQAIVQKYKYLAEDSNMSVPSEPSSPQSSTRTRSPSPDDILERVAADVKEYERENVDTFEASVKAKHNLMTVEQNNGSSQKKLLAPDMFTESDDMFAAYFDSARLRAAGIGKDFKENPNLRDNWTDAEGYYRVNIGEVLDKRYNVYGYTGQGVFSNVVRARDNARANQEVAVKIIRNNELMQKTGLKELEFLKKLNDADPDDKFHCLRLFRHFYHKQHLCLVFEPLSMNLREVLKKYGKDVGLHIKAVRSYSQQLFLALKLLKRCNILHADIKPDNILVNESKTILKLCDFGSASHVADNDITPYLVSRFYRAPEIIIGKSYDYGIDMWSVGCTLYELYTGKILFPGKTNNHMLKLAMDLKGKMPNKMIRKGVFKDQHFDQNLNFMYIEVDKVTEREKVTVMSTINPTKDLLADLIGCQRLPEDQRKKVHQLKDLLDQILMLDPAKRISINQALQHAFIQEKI

[8] = target: Interferon-induced, double-stranded RNA-activated protein kinase (Homo sapiens) (UniProt P19525); assay: Inhibition of PRKR (unknown origin) assessed as residual activity at 1000 nM by KINOMEscan analysis relative to control
Sequence of Interferon-induced, double-stranded RNA-activated protein kinase (Homo sapiens) (P19525 whole entry): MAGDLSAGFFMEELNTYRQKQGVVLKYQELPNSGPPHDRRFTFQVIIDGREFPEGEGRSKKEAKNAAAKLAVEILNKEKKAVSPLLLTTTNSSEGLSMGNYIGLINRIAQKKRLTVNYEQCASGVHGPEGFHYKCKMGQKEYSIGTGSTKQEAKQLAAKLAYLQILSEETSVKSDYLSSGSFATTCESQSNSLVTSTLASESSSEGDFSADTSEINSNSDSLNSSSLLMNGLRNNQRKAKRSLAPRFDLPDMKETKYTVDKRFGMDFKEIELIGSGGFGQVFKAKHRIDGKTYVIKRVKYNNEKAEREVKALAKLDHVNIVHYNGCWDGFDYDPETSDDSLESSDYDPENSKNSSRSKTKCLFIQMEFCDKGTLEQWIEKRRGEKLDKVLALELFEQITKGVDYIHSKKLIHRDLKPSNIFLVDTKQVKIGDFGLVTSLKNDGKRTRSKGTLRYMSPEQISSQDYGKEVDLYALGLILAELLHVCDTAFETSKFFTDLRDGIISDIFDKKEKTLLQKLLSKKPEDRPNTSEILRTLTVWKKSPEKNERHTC

Sequence of Serine/threonine-protein kinase B-raf (Homo sapiens) (P15056 whole entry, the tested form may be a part): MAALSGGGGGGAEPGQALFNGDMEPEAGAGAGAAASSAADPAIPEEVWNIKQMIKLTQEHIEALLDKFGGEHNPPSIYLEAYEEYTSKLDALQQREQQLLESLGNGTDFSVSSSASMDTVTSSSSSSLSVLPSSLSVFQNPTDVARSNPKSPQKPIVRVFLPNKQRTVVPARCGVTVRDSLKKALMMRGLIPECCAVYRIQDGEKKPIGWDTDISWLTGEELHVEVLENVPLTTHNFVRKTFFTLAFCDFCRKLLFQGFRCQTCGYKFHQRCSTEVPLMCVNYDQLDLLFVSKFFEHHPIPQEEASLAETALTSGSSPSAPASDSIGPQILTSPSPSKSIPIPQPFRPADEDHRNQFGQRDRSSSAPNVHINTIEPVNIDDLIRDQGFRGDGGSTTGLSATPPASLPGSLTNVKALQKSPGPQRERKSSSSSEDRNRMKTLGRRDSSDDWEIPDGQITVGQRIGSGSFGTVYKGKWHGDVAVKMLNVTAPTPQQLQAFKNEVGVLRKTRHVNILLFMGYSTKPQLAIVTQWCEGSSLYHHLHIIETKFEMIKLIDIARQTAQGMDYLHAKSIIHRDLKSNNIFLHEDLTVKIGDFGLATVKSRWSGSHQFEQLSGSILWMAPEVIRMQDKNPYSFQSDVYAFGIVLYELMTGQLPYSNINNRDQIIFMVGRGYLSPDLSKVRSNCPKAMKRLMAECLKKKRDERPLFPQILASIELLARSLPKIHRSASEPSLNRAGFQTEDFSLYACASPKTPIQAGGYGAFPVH

SMILES	Activity [1]	Activity [2]	Activity [3]	Activity [4]	Activity [5]	Activity [6]	Activity [7]	Activity [8]
COc1cc2ncnc(N[C@H](C)c3cccc4ccccc34)c2cc1OC	91%	100%	100%	93%	100%	94%	95%	92%
COc1cc2nc(C)nc(N[C@H](C)c3cccc(-c4cn[nH]c4)c3)c2cc1OC	75%	78%	95%	70%	100%	82%	94%	72%
